Source: ChEMBL document CHEMBL3885861, “Open TG-GATES”

Species on record: Rattus norvegicus
Test: Open TG-GATES - Regimen: Single
Type: toxicity, organism-based, Sprague-Dawley
Parameters: regimen Single, gender Male, age 6 weeks
Settings: in vivo, po, 8 mg/kg, route gavage, dose level Low; for APTT / Bas / Eos / Fbg / Hb / Ht / Lym / MCH / MCHC / MCV / Mono / Neu / PT / Plat / RBC / Ret / WBC: tissue Blood; for KIDNEY_L / KIDNEY_R / KIDNEY_TOTAL: tissue Kidney; for LIVER: tissue Liver; for A/G / ALP / ALT / AST / BUN / CRE / Ca / Cl / DBIL / GLC / IP / K / LDH / Na / PL / RALB / TBIL / TC / TG / TP / gamma-GTP: tissue Plasma

NC1=NC(=O)C(c2ccccc2)O1 (configuration not stated) [PEMOLINE]
TERMINAL_BW (3 h): 210.1 g
APTT (3 h): 15.6 s
Bas (3 h): 0%
Eos (3 h): 0.6%
Fbg (3 h): 289.6 mg/dL
Hb (3 h): 13.2 g/dL
Ht (3 h): 38.9%
Lym (3 h): 79.4%
MCH (3 h): 21.9 pg
MCHC (3 h): 34.1%
MCV (3 h): 64.2 fL
Mono (3 h): 3.2%
Neu (3 h): 16.2%
PT (3 h): 13.2 s
Plat (3 h): 112.1 x10_4/uL
RBC (3 h): 605.6 x10_4/ul
Ret (3 h): 9.3%
WBC (3 h): 89 x10_2/uL
KIDNEY_L (3 h): 0.9 g
KIDNEY_R (3 h): 0.9 g
KIDNEY_TOTAL (3 h): 1.8 g
LIVER (3 h): 9 g
A/G (3 h): 1
ALP (3 h): 1585.2 IU/L
ALT (3 h): 44 IU/L
AST (3 h): 83 IU/L
BUN (3 h): 8.2 mg/dL
CRE (3 h): 0.2 mg/dL
Ca (3 h): 10.7 mg/dL
Cl (3 h): 106.2 meq/L
DBIL (3 h): 0.014 mg/dL
GLC (3 h): 174.2 mg/dL
IP (3 h): 7.9 mg/dL
K (3 h): 4.1 meq/L
LDH (3 h): 68.8 IU/L
Na (3 h): 139.6 meq/L
PL (3 h): 126.6 mg/dL
RALB (3 h): 2.7 g/dL
TBIL (3 h): 0.042 mg/dL
TC (3 h): 77 mg/dL
TG (3 h): 45.8 mg/dL
TP (3 h): 5.3 g/dL
gamma-GTP (3 h): 1.4 IU/L
TERMINAL_BW (6 h): 211.2 g
APTT (6 h): 15.8 s
Bas (6 h): 0%
Eos (6 h): 1%
Fbg (6 h): 309 mg/dL
Hb (6 h): 13.5 g/dL
Ht (6 h): 39.8%
Lym (6 h): 75.6%
MCH (6 h): 21.9 pg
MCHC (6 h): 33.9%
MCV (6 h): 64.6 fL
Mono (6 h): 3.4%
Neu (6 h): 19.6%
PT (6 h): 13.1 s
Plat (6 h): 112.7 x10_4/uL
RBC (6 h): 616.4 x10_4/ul
Ret (6 h): 8.9%
WBC (6 h): 81.1 x10_2/uL
KIDNEY_L (6 h): 0.9 g
KIDNEY_R (6 h): 0.9 g
KIDNEY_TOTAL (6 h): 1.8 g
LIVER (6 h): 8.7 g
A/G (6 h): 1
ALP (6 h): 1539 IU/L
ALT (6 h): 44 IU/L
AST (6 h): 80 IU/L
BUN (6 h): 8 mg/dL
CRE (6 h): 0.2 mg/dL
Ca (6 h): 10.7 mg/dL
Cl (6 h): 104.8 meq/L
DBIL (6 h): 0.014 mg/dL
GLC (6 h): 186.2 mg/dL
IP (6 h): 9.9 mg/dL
K (6 h): 3.9 meq/L
LDH (6 h): 56.8 IU/L
Na (6 h): 140.6 meq/L
PL (6 h): 127 mg/dL
RALB (6 h): 2.8 g/dL
TBIL (6 h): 0.042 mg/dL
TC (6 h): 78.4 mg/dL
TG (6 h): 37.4 mg/dL
TP (6 h): 5.5 g/dL
gamma-GTP (6 h): 1.4 IU/L
TERMINAL_BW (9 h): 209.7 g
APTT (9 h): 15.9 s
Bas (9 h): 0%
Eos (9 h): 1%
Fbg (9 h): 319.2 mg/dL
Hb (9 h): 13.3 g/dL
Ht (9 h): 39.2%
Lym (9 h): 77.8%
MCH (9 h): 21.9 pg
MCHC (9 h): 34%
MCV (9 h): 64.2 fL
Mono (9 h): 2.8%
Neu (9 h): 18%
PT (9 h): 13.2 s
Plat (9 h): 117.5 x10_4/uL
RBC (9 h): 611 x10_4/ul
Ret (9 h): 9.2%
WBC (9 h): 91 x10_2/uL
KIDNEY_L (9 h): 0.9 g
KIDNEY_R (9 h): 0.9 g
KIDNEY_TOTAL (9 h): 1.8 g
LIVER (9 h): 7.7 g
A/G (9 h): 1
ALP (9 h): 1372.4 IU/L
ALT (9 h): 40.6 IU/L
AST (9 h): 74.2 IU/L
BUN (9 h): 8.2 mg/dL
CRE (9 h): 0.2 mg/dL
Ca (9 h): 10.4 mg/dL
Cl (9 h): 106 meq/L
DBIL (9 h): 0.012 mg/dL
GLC (9 h): 172.2 mg/dL
IP (9 h): 9.7 mg/dL
K (9 h): 3.9 meq/L
LDH (9 h): 57.4 IU/L
Na (9 h): 140.4 meq/L
PL (9 h): 122.4 mg/dL
RALB (9 h): 2.7 g/dL
TBIL (9 h): 0.044 mg/dL
TC (9 h): 78.4 mg/dL
TG (9 h): 28.4 mg/dL
TP (9 h): 5.3 g/dL
gamma-GTP (9 h): 1.4 IU/L
TERMINAL_BW (24 h): 216.4 g
APTT (24 h): 16.8 s
Bas (24 h): 0%
Eos (24 h): 0.8%
Fbg (24 h): 274.6 mg/dL
Hb (24 h): 13 g/dL
Ht (24 h): 38.4%
Lym (24 h): 77.8%
MCH (24 h): 22.1 pg
MCHC (24 h): 33.9%
MCV (24 h): 65.2 fL
Mono (24 h): 3.4%
Neu (24 h): 17.4%
PT (24 h): 12.9 s
Plat (24 h): 118.4 x10_4/uL
RBC (24 h): 590.2 x10_4/ul
Ret (24 h): 8.1%
WBC (24 h): 88.3 x10_2/uL
KIDNEY_L (24 h): 0.9 g
KIDNEY_R (24 h): 0.9 g
KIDNEY_TOTAL (24 h): 1.9 g
LIVER (24 h): 10 g
A/G (24 h): 1
ALP (24 h): 1622.2 IU/L
ALT (24 h): 43 IU/L
AST (24 h): 70.2 IU/L
BUN (24 h): 15.2 mg/dL
CRE (24 h): 0.2 mg/dL
Ca (24 h): 11 mg/dL
Cl (24 h): 105 meq/L
DBIL (24 h): 0.018 mg/dL
GLC (24 h): 177.8 mg/dL
IP (24 h): 8.2 mg/dL
K (24 h): 3.9 meq/L
LDH (24 h): 61.8 IU/L
Na (24 h): 142.2 meq/L
PL (24 h): 133.8 mg/dL
RALB (24 h): 2.8 g/dL
TBIL (24 h): 0.03 mg/dL
TC (24 h): 76 mg/dL
TG (24 h): 69.4 mg/dL
TP (24 h): 5.6 g/dL
gamma-GTP (24 h): 1 IU/L
